ChEMBL document CHEMBL1128688, “Synthesis and biological evaluation of a series of substituted benzo[a]phenanthridines as agonists at D1 and D2 dopamine receptors” (J Med Chem, 1995)

What was measured:
[1] = molecular target: Adenylate cyclase type 5 (Rattus norvegicus) (UniProt Q04400); assay: Intrinsic activity measured as ability to stimulate dopamine sensitive Adenylate cyclase activity was measured in rat striatum.; type: functional, tissue-based
[2] = molecular target: D(2) dopamine receptor (Rattus norvegicus) (UniProt P61169); assay: Binding affinity for Dopamine receptor D2 of rat striatal homogenate
[3] = molecular target: D(1A) dopamine receptor (Rattus norvegicus) (UniProt P18901); assay: Binding affinity for dopamine receptor D1 in rat striatal homogenate
[4] = molecular target: Dopamine receptors; D1 & D2 (Rattus norvegicus) (UniProt P18901+P61169); assay: Relative binding affinity for dopamine receptors D1 and D2 in rat striatal homogenates

Adenylate cyclase type 5 (Rattus norvegicus), sequence (Q04400 whole entry): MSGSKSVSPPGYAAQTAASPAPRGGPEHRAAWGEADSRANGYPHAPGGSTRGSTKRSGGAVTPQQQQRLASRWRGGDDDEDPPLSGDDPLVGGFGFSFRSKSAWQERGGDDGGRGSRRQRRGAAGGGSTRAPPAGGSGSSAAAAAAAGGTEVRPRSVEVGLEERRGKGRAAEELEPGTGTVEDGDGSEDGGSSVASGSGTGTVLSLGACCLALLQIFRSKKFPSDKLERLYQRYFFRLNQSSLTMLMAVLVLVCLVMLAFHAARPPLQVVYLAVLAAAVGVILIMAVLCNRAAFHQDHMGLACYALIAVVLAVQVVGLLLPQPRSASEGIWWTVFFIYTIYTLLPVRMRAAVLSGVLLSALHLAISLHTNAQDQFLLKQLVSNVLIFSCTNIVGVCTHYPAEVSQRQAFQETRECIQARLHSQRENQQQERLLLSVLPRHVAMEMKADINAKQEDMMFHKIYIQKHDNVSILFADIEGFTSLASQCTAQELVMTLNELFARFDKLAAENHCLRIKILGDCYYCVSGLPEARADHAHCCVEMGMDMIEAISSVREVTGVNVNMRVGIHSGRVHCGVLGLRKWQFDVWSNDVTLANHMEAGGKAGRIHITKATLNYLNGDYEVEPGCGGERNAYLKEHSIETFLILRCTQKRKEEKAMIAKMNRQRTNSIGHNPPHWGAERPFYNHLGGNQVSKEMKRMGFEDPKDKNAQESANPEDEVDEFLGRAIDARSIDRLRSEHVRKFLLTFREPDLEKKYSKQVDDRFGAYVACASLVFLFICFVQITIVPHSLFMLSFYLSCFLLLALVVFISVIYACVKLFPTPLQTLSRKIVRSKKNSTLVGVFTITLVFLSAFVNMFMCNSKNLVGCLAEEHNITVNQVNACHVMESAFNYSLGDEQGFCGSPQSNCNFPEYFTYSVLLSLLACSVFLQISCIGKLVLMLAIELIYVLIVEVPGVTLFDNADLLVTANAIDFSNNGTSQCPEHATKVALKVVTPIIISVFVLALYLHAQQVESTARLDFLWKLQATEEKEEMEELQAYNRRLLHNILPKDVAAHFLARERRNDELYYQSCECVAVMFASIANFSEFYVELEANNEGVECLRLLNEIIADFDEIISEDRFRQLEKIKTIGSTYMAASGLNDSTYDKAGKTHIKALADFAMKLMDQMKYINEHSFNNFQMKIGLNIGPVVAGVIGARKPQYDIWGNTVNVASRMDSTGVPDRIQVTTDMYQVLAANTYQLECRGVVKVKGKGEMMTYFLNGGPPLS
D(1A) dopamine receptor (Rattus norvegicus), sequence (P18901 whole entry): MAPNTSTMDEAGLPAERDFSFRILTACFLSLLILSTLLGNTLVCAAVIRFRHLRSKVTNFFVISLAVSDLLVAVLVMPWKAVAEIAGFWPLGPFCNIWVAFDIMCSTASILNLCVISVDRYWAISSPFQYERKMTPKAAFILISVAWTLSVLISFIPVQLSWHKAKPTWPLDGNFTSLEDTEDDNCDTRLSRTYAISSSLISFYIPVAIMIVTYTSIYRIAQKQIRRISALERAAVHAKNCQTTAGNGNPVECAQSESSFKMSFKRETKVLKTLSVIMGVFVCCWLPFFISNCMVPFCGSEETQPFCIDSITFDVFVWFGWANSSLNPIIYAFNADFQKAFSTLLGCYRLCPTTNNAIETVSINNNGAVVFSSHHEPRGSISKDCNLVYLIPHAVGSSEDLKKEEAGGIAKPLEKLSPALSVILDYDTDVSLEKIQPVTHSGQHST
D(2) dopamine receptor (Rattus norvegicus), sequence (P61169 whole entry): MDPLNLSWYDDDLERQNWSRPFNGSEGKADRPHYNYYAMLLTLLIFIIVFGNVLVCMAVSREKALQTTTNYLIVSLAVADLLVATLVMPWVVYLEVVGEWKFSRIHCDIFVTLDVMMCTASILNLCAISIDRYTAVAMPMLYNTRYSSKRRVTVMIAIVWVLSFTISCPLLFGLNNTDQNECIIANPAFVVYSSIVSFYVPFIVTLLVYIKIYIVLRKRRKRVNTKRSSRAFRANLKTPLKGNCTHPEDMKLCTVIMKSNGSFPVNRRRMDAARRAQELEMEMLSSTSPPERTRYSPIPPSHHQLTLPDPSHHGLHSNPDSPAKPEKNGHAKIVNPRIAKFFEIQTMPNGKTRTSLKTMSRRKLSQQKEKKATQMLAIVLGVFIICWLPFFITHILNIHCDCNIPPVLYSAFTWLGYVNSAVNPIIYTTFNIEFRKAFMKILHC

| Structure (SMILES) | Intrinsic activity [1] [%] | K0.5 [2] [nM] | K0.5 [3] [nM] | Selectivity [4] |
| --- | --- | --- | --- | --- |
| Oc1cc2c(cc1O)[C@H]1c3ccccc3CN[C@@H]1CC2 | 95 | – | – | – |
| CN1CCc2cc(Cl)c(O)cc2[C@@H](c2ccccc2)C1 | – | > 500 | – | – |
| Cc1ccc2c(c1)[C@@H]1c3cc(O)c(O)cc3CC[C@H]1NC2 | 91 | – | 8.66 | – |
| CCc1ccc2c(c1)[C@@H]1c3cc(O)c(O)cc3CC[C@H]1NC2 | 103 | 423 | 29.2 | 14.5 |
| Cc1ccc2c(c1)CN[C@@H]1CCc3cc(O)c(O)cc3[C@@H]21 | 105 | 18 | 5.06 | 3.6 |
| Oc1ccc2c(c1)CN[C@@H]1CCc3cc(O)c(O)cc3[C@@H]21 | 104 | 53.6 | 12.2 | 4.4 |
| CCCN1Cc2c(C)cccc2[C@@H]2c3cc(O)c(O)cc3CC[C@H]21 | 89 | 9.01 | 23.4 | – |
| CCCN1Cc2ccccc2[C@@H]2c3cc(O)c(O)cc3CC[C@H]21 | 40 | 25.7 | 180 | – |
| CCCN1Cc2cc(C)ccc2[C@@H]2c3cc(O)c(O)cc3CC[C@H]21 | 20 | 29.4 | 181 | 0.16 |
| O=c1[nH]c2ccccc2n1CCCN1CCC(n2c(=O)[nH]c3cc(Cl)ccc32)CC1 | – | 1 | > 1000 | < 1000 |
| Oc1ccc2c(c1)[C@@H]1c3cc(O)c(O)cc3CC[C@H]1NC2 | 95 | 194 | 18.8 | 10.3 |
| Cc1cccc2c1CN[C@@H]1CCc3cc(O)c(O)cc3[C@@H]21 | 80 | 18 | 6.58 | 2.7 |
| Oc1cc2c(cc1O)[C@H]1c3cc(-c4ccccc4)ccc3CN[C@@H]1CC2 | 60 | 90.2 | 187 | 0.5 |
